Patent US20110275684A1, “NOVEL BENZOTRIAZOLE DERIVATIVES USEFUL FOR THE TREATMENT OF CNS DISORDERS” (NEUROSEARCH A/S, priority 2009, published 2011)

tested on: psychomotor seizures induced via corneal stimulation (6 Hz) in female NMRI mice; assay: 6 Hz electroshock seizure model (anticonvulsant properties); assay type: in vivo; conditions: Mus musculus, po, 32 mA, 3 s corneal stimulation, p.o., pretreatment time 60 mins, vehicle 5% cremaphor, read-out: ED50 (dose that would give a 50% protection from seizures)
Excerpt: The animal models being used for the discovery of novel antiepileptic drugs are numerous. Among these, a low frequency (6 Hz) electroshock seizure model has recently come into the limelight as a potential model of pharmacoresistant epilepsy (see Epilepsy: a comprehensive textbook, pag. 1477, by By Jerome Engel, Timothy A. Pedley, Jean Aicardi, Marc A Dichter, Solomon Moshé—2007—Medical), and it is therefore an animal model of primary interest in antiepileptic drug discovery. The compounds of the invention have shown remarkable activity to protect against 6 Hz seizures.
The evaluation of the anticonvulsant properties was carried out in female NMRI mice (20-25 g, Taconic, Denmark). The mice were housed in groups (8 per cage according to weight) with food and water available ad libitum The environment was temperature (20±2° C.) and humidity (55±15%) controlled, and consisted of a 12:12 h light-dark cycle (lights on 06:00 h). The experiments were performed according to the Danish Committee for Experiments on Animals. […]
For screening purposes, the test compound was tested at 1 dose at 1 time-point. In the case of protection of 3 or more out of 8 mice, the compound were further evaluated in dose response (N=8/group). […]

`CCC(C(N)=O)n1nnc2ccccc21` (racemic) [Compound 1, 2-Benzotriazol-1-yl-butyramide] and `CC[C@@H](C(N)=O)n1nnc2cc(Br)ccc21` [Compound 12, (2S)-2-(5-Bromobenzotriazol-1-yl)butanamide] are the same in ED50: 38 mg/kg for the first, 38 mg/kg for the second.

tested on: not given; assay: not given; conditions: not given

First: Fc1cc(F)c2nnn(Cc3ncc[nH]3)c2c1
Second: NC(=O)Cn1nnc2c(F)cc(F)cc21 [Compound 9, 2-(4,6-Difluoro-benzotriazol-1-yl)-acetamide]
The melting point of the first is lower: 166 to 167.5 °C for the first, 247.8 to 248.9 °C for the second.

First: CC(C(N)=O)n1nnc2cc(F)ccc21 (stereo not drawn) [Compound 11, 2-(5-Fluoro-benzotriazol-1-yl)-propionamide]
Second: CC(C(N)=O)n1nnc2ccc(F)cc21 (stereo not drawn) [Compound 10, 2-(6-Fluoro-benzotriazol-1-yl)-propionamide]
The melting point of the first is lower: 138.6 to 140.1 °C for the first, 156.8 to 158 °C for the second.

First: CCC(C(N)=O)n1nnc2c(F)cc(F)cc21 (stereo not drawn) [Compound 7, 2-(4,6-Difluoro-benzotriazol-1-yl)-butyramide]
Second: CCC(C(N)=O)n1nnc2cc(F)cc(F)c21 (stereo not drawn) [Compound 6, 2-(5,7-Difluoro-benzotriazol-1-yl)-butyramide]
The melting point of the first is higher: 199 to 200.5 °C for the first, 155 to 156.3 °C for the second.

Compared with `CC(C)CC(C(N)=O)n1nnc2ccccc21` (stereo not drawn) [Compound 17, 2-(Benzotriazol-1-yl)-4-methyl-pentanamide], `CC(C)[C@@H](C(N)=O)n1nnc2ccccc21` [Compound 16, (2S)-2-(Benzotriazol-1-yl)-3-methyl-butanamide] is lower in melting point: 177.5 to 178.8 °C for the first, 164 to 165.7 °C for the second.

First: c1ccc2c(c1)nnn2Cc1c[nH]cn1
Second: Brc1ccc2c(c1)nnn2Cc1c[nH]cn1
The melting point of the first is lower: 137.8 to 138.9 °C for the first, 178.3 to 180.8 °C for the second.

Compared with `CC[C@@H](C(N)=O)n1nnc2c(Cl)cccc21` [Compound 15, (2S)-2-(4-Chlorobenzotriazol-1-yl)butanamide], `CC[C@@H](C(N)=O)n1nnc2c(F)cccc21` [Compound 24, (2S)-2-(4-Fluorobenzotriazol-1-yl)butanamide] is higher in melting point: 153 to 154.5 °C for the first, 163.9 to 165.1 °C for the second.

Compared with `NC(=O)Cn1nnc2cc(Br)ccc21` [Compound 13, 2-(5-Bromo-benzotriazol-1-yl)-acetamide], `CC[C@H](C(N)=O)n1nnc2cc(Br)ccc21` [Compound 21, (2R)-2-(5-Bromobenzotriazol-1-yl)butanamide] is lower in melting point: 221.5 to 222.5 °C for the first, 206.2 to 207.3 °C for the second.

Compared with `CC[C@H](C(N)=O)n1nnc2c(F)cccc21` [Compound 23, (2R)-2-(4-Fluorobenzotriazol-1-yl)butanamide], `CC[C@@H](C(N)=O)n1nnc2cc(Cl)ccc21` [Compound 18, (2S)-2-(5-Chlorobenzotriazol-1-yl)butanamide] is higher in melting point: 162.5 to 163.7 °C for the first, 175.5 to 177.5 °C for the second.

First: NC(=O)Cn1nnc2cc(F)cc(F)c21 [Compound 8, 2-(5,7-Difluoro-benzotriazol-1-yl)-acetamide]
Second: CS(=O)(=O)c1ccc2nnn(CC(N)=O)c2c1 [Compound 5, 2-(6-Methanesulfonyl-benzotriazol-1-yl)-acetamide]
The melting point of the first is lower: 236.5 to 238 °C for the first, 241.8 to 242.7 °C for the second.

Compound `CCC(C(N)=O)n1nnc2ccc(Br)cc21` (stereo not drawn) [Compound 3, 2-(6-Bromo-benzotriazol-1-yl)-butyramide] has a melting point of 181.2 to 182.1 °C.
